In patent US20070128217A1 (priority 2003, published 2007):

Columns and labels:
[1] = tested on: rabbit serum obtained by immunizing a rabbit with the SARS-CoV strain Frankfurt 1; type: binding; design: Binding of a rabbit serum to linear peptides / Binding of a rabbit serum to looped peptides / Rabbit serum linear peptides / Rabbit serum looped peptides / Binding of a rabbit serum to linear peptides of protein N of SARS-CoV Urbani (Rabbit serum linear peptides) / Binding of a rabbit serum to looped/cyclic peptides of protein N of SARS-CoV Urbani (Rabbit serum looped peptides): unit not given here
[2] = tested on: recombinant human anti-SARS-CoV antibody 03-018; type: binding; design: Binding of antibody 03-018 to linear peptides of the N protein of SARS-CoV Urbani / Binding of antibody 03-018 to looped/cyclic peptides of the N protein of SARS-CoV Urbani: unit not given here
[3] = tested on: control sera (pooled serum of ten healthy LUMC hospital workers; commercial negative donor pooled serum from the Dutch bloodbank); type: binding, human; design: Binding of Control serum LUMC to linear peptides / Binding of Control serum Blood-bank to linear peptides / Binding of Control serum LUMC to looped peptides / Binding of Control Serum Blood-Bank to Looped peptides / Binding of Control serum LUMC to linear peptides of the protein M of SARS-CoV Urbani / Binding of Control serum Blood-bank to linear peptides of the protein M of SARS-CoV Urbani / Binding of Control serum LUMC to looped peptides of the protein M of SARS-CoV Urbani / Binding of Control Serum Blood-Bank to Looped peptides of the protein M of SARS-CoV Urbani: unit not given here
[4] = tested on: antibodies in sera from SARS patients (sera 1a, 1b, 2, 6, 37, 62, London, SARS-yellow, SARS-green); type: binding, human; design: Binding of serum 6 to linear peptides of protein X1 of SARS-CoV Urbani / Binding of serum 37 to linear peptides of protein X1 of SARS-CoV Urbani / Binding of serum 6 to looped/cyclic peptide (PEPSCAN-ELISA) / Binding of serum 37 to looped/cyclic peptide (PEPSCAN-ELISA) / Binding of serum 37 to looped/cyclic peptides of protein X1 of SARS-CoV Urbani / Binding of serum 6 to linear peptides of protein X2 / Binding of serum 37 to linear peptides of protein X2 / Binding of serum 37 to looped/cyclic peptides of protein X2 of SARS-CoV Urbani / Binding of serum 6 to linear peptides of protein M of SARS-CoV Urbani / Binding of serum 37 to linear peptides of protein M of SARS-CoV Urbani / Binding of serum 6 to looped/cyclic peptides of protein M of SARS-CoV Urbani / Binding of serum 37 to looped/cyclic peptides of protein M of SARS-CoV Urbani / Binding of serum 6 to linear peptides of protein X3 of SARS-CoV Urbani / Binding of serum 37 to linear peptides of protein X3 of SARS-CoV Urbani / Binding of serum 37 to looped/cyclic peptides of protein X3 of SARS-CoV Urbani / Binding of serum 6 to linear peptides of protein X4 of SARS-CoV Urbani / Binding of serum 37 to linear peptides of protein X4 of SARS-CoV Urbani / Binding of serum 37 to looped/cyclic peptides of protein X4 of SARS-CoV Urbani / Binding of serum 6 to linear peptides of protein X5 of SARS-CoV Urbani / Binding of serum 37 to linear peptides of protein X5 of SARS-CoV Urbani / Binding of serum 37 to looped/cyclic peptides of protein X5 of SARS-CoV Urbani / Binding of serum 6 to linear peptides of protein N of SARS-CoV Urbani / Binding of serum 37 to linear peptides of protein N of SARS-CoV Urbani / Binding of serum 6 to linear peptide (PEPSCAN-ELISA) / Binding of serum 1a to looped/cyclic peptides of protein N of SARS-CoV Urbani / Binding of serum 1b to looped/cyclic peptides of protein N of SARS-CoV Urbani / Binding of serum 2 to looped/cyclic peptides of protein N of SARS-CoV Urbani / Binding of serum 6 to looped/cyclic peptides of protein N of SARS-CoV Urbani / Binding of serum 37 to looped/cyclic peptides of protein N of SARS-CoV Urbani / Binding of serum 62 to looped/cyclic peptides of protein N of SARS-CoV Urbani / Binding of serum London to looped/cyclic peptides of protein N of SARS-CoV Urbani / Binding of serum SARS-green to looped/cyclic peptides of protein N of SARS-CoV Urbani: unit not given here

Row | Sequence | Binding of a rabbit serum to linear peptides of protein N of SARS-CoV Urbani (Rabbit serum linear peptides) [1] | Binding of a rabbit serum to looped/cyclic peptides of protein N of SARS-CoV Urbani (Rabbit serum looped peptides) [1] | Binding of antibody 03-018 to linear peptides of the N protein of SARS-CoV Urbani [2] | Binding of antibody 03-018 to looped/cyclic peptides of the N protein of SARS-CoV Urbani [2] | Binding of serum 1a to linear peptides of protein N of SARS-CoV Urbani [4] | Binding of serum 1a to looped/cyclic peptides of protein N of SARS-CoV Urbani [4] | Binding of serum 1b to linear peptides of protein N of SARS-CoV Urbani [4] | Binding of serum 1b to looped/cyclic peptides of protein N of SARS-CoV Urbani [4] | Binding of serum 2 to linear peptides of protein N of SARS-CoV Urbani [4] | Binding of serum 2 to looped/cyclic peptides of protein N of SARS-CoV Urbani [4] | Binding of serum 6 to linear peptides of protein N of SARS-CoV Urbani [4] | Binding of serum 6 to looped/cyclic peptides of protein N of SARS-CoV Urbani [4] | Binding of serum 37 to linear peptides of protein N of SARS-CoV Urbani [4] | Binding of serum 37 to looped/cyclic peptides of protein N of SARS-CoV Urbani [4] | Binding of serum 62 to linear peptides of protein N of SARS-CoV Urbani [4] | Binding of serum 62 to looped/cyclic peptides of protein N of SARS-CoV Urbani [4] | Binding of serum London to linear peptides of protein N of SARS-CoV Urbani [4] | Binding of serum London to looped/cyclic peptides of protein N of SARS-CoV Urbani [4] | Binding of serum SARS-green to linear peptides of protein N of SARS-CoV Urbani [4] | Binding of serum SARS-green to looped/cyclic peptides of protein N of SARS-CoV Urbani [4] | further results
1 | VATEGALNTPKDHIG | 0.2 | 0.0 | 0.2 | 0.2 | 0.3 | 0.3 | 0.1 | 0.2 | 0.2 | 0.3 | 0.2 | 0.2 | 0.7 | 0.4 | 1.1 | 0.3 | 0.7 | 0.3 | 0.5 | 0.2 | Binding of Control Serum Blood-Bank to Looped peptides [3]: 0.5; Binding of Control serum Blood-bank to linear peptides [3]: 0.9; Binding of Control serum LUMC to linear peptides [3]: 0.9; Binding of Control serum LUMC to looped peptides [3]: 0.5; Binding of serum SARS-yellow to linear peptides of protein N of SARS-CoV Urbani [4]: 0.6; Binding of serum SARS-yellow to looped/cyclic peptides of protein N of SARS-CoV Urbani [4]: 0.2
2 | VILLNKHIDAYKTFP | 0.1 | 0.4 | 0.1 | 0.2 | 0.2 | 0.3 | 0.1 | 0.1 | 0.2 | 0.3 | 0.2 | 0.2 | 0.7 | 0.5 | 0.7 | 0.4 | 0.5 | 0.4 | 0.4 | 0.2 | Control Serum Blood-Bank Looped peptides [3]: 0.5; Control serum Blood-bank linear peptides [3]: 0.7; Control serum LUMC linear peptides [3]: 0.8; Control serum LUMC looped peptides [3]: 0.4; Binding of serum SARS-yellow to linear peptides of protein N of SARS-CoV Urbani [4]: 0.5; Binding of serum SARS-yellow to looped/cyclic peptides of protein N of SARS-CoV Urbani [4]: 0.3
3 | VPINTNSGPDDQIGY | 0.1 | 0.3 | 0.1 | 0.2 | 0.3 | 0.5 | 0.2 | 0.4 | 0.2 | 0.4 | 0.2 | 0.2 | 0.8 | 0.9 | 0.7 | 0.7 | 0.4 | 0.5 | 0.4 | 1.1 | Binding of Control Serum Blood-Bank to Looped peptides [3]: 0.8; Binding of Control serum Blood-bank to linear peptides [3]: 0.7; Binding of Control serum LUMC to linear peptides [3]: 0.8; Binding of Control serum LUMC to looped peptides [3]: 0.7; Binding of serum SARS-yellow to linear peptides of protein N of SARS-CoV Urbani [4]: 0.5; Binding of serum SARS-yellow to looped/cyclic peptides of protein N of SARS-CoV Urbani [4]: 0.7
